Measurements from PubChem BioAssay AID1963836 (Molecular Pharmacology Branch, DTP, NCI, 2024).

Test system: 857933-349-R-J2-PDC complex spheroid viability
Test: Anticancer human tumor 857933-349-R-J2-PDC patient-derived colon adenocarcinoma cell line growth inhibition [POLQ]
Details: for IC50: curve of first compound; for viability, T/C: stronger effect = lower value
Outline: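 PDC + HUVEC + MSC complex spheroids; POLQ inhibitors ± partner drugs; top conc. at/near clinical Cmax, else 10 microM (SN-38 1 microM), half-log dilutions; 37 degrees C, 5% CO2.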
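Also: spheroids exposed to compounds for seven days before readout.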

O=c1[nH]cc(F)c(=O)[nH]1 + Nc1ccc(C#CCN(C(=O)Cc2ncc(C(F)(F)F)cc2C(F)(F)F)c2ccc(F)cc2)nn1
IC50 (second compound 0.0316 µM): 2.15 µM | IC50 (second compound 0.1 µM): 2.13 µM | IC50 (second compound 0.316 µM): 2.45 µM | IC50 (second compound 1 µM): 2.28 µM | IC50 (second compound 3.16 µM): 2.33 µM | IC50 (second compound 10 µM): 2.17 µM | viability, T/C (second compound 0.0316 µM, first compound 0.0316 µM): 101% | viability, T/C (second compound 0.0316 µM, first compound 0.1 µM): 98.7% | viability, T/C (second compound 0.0316 µM, first compound 0.316 µM): 100% | viability, T/C (second compound 0.0316 µM, first compound 1 µM): 83.4% | viability, T/C (second compound 0.0316 µM, first compound 3.16 µM): 33.1% | viability, T/C (second compound 0.0316 µM, first compound 10 µM): 25.1% | viability, T/C (second compound 0.1 µM, first compound 0.0316 µM): 102% | viability, T/C (second compound 0.1 µM, first compound 0.1 µM): 93.5% | viability, T/C (second compound 0.1 µM, first compound 0.316 µM): 93.3% | viability, T/C (second compound 0.1 µM, first compound 1 µM): 75.2% | viability, T/C (second compound 0.1 µM, first compound 3.16 µM): 36.5% | viability, T/C (second compound 0.1 µM, first compound 10 µM): 22.7% | viability, T/C (second compound 0.316 µM, first compound 0.0316 µM): 106% | viability, T/C (second compound 0.316 µM, first compound 0.1 µM): 120% | viability, T/C (second compound 0.316 µM, first compound 0.316 µM): 97.2% | viability, T/C (second compound 0.316 µM, first compound 1 µM): 84.4% | viability, T/C (second compound 0.316 µM, first compound 3.16 µM): 39.2% | viability, T/C (second compound 0.316 µM, first compound 10 µM): 23.3% | viability, T/C (second compound 1 µM, first compound 0.0316 µM): 106% | viability, T/C (second compound 1 µM, first compound 0.1 µM): 103% | viability, T/C (second compound 1 µM, first compound 0.316 µM): 97.5% | viability, T/C (second compound 1 µM, first compound 1 µM): 81.6% | viability, T/C (second compound 1 µM, first compound 3.16 µM): 37.2% | viability, T/C (second compound 1 µM, first compound 10 µM): 22.4% | viability, T/C (second compound 3.16 µM, first compound 0.0316 µM): 105% | viability, T/C (second compound 3.16 µM, first compound 0.1 µM): 106% | viability, T/C (second compound 3.16 µM, first compound 0.316 µM): 91% | viability, T/C (second compound 3.16 µM, first compound 1 µM): 83.3% | viability, T/C (second compound 3.16 µM, first compound 3.16 µM): 37.2% | viability, T/C (second compound 3.16 µM, first compound 10 µM): 21.5% | viability, T/C (second compound 10 µM, first compound 0.0316 µM): 95.7% | viability, T/C (second compound 10 µM, first compound 0.1 µM): 87.1% | viability, T/C (second compound 10 µM, first compound 0.316 µM): 92.7% | viability, T/C (second compound 10 µM, first compound 1 µM): 87.5% | viability, T/C (second compound 10 µM, first compound 3.16 µM): 31.8% | viability, T/C (second compound 10 µM, first compound 10 µM): 27.8%
